In this assay the test system is Streptococcus pneumoniae. Nature of the assay: Antibacterial activity against telithromycin-susceptible Streptococcus pneumoniae. Format: functional.

SMILES strings stand for the structures. Converted amounts (≈) assume the structure as drawn.

Usually MIC90 stands for the lowest concentration that inhibits either 90% of growth or 90% of the strains tested, depending on the study. Lower therefore signals higher susceptibility. Regarding `CC[C@H]1OC(=O)[C@H](C)C(=O)[C@H](C)[C@@H](O[C@@H]2O[C@H](C)C[C@H](N(C)C)[C@H]2O)[C@](C)(OC)C[C@@H](C)C(=O)[C@H](C)[C@H]2N(CCCCn3cnc(-c4cccnc4)c3)C(=O)O[C@]12C` [TELITHROMYCIN], the MIC90 was determined as 0.12 µg/mL (≈ 0.148 µM).

The values are drawn from ChEMBL document CHEMBL1145463, “Clonal spread of mef-positive macrolide-resistant Streptococcus pneumoniae isolates causing invasive disease in adults in Germany” (2007).
